Our source for the EC50 values is patent US9802949B2, “Fused ring compounds as hepatitis C virus inhibitors, pharmaceutical compositions and uses thereof” (SUNSHINE LAKE PHARMA CO., LTD., priority 2012, dated 2017).

One test relates to HCV GT1b replicon. As to the kind of experiment: HCV replicon assay (Huh-7 cells stably transfected with HCV GT1b replicon; luciferase or NEO gene qPCR readout). The class given is cell-based. The following applies: Hepatitis C virus, HCV 1b genotype replicon, 72 hours. The protocol: (§1) HCV Replicon System was utilized as a screening model in the present disclosure to evaluate the antivirus effects of the compounds disclosed herein against HCV. HCV Replicon assay was first described in Science, 1999, 285 (5424), 110-3. […] To determine the potential anti-HCV effects of the test compounds, luciferase assay and antibiotic Neomycin resistance gene were tested according to the method described in Science. 1999 Jul. 2; 285 (5424), 110-3 and J. Virol. 2003 March; 77 (5), 3007-19.
(§2) In a word, the compounds disclosed herein were tested by using human hepatic carcinoma cell line Huh-7 which is transfected stably with HCV GT1a, GT1b or GT2a replicon respectively, and resistant cells of Y93H, L31F, P32L or I302V and wild-type cells HCV 1b. HCV Replicon System disclosed herein contains G418 resistance gene NEO and Luciferase Reporter Gene, and the level of HCV replication in host cells is detected and characterized by the expression level of the NEO gene or Luciferase Reporter Gene, so the effects of the compounds herein inhibit HCV replication can be evaluated in this system. In this article, a real-time quantitative polymerase chain reaction (qPCR) method was used to detect NEO gene expression level, and chemiluminescence method was used to test Luciferase Reporter Gene expression level.
(§3) 1. Test Method for Measuring EC50 of the Compounds Based on Luciferase Assay.
(§4) The Huh-7 cells transfected with HCV replicons system were seeded into 96-well plates (8,000 cells in 125 μL/well) respectively; each test compound was diluted to desired concentration using 5-fold serial dilutions protocol, 10 doses in duplicate, and added to wells with POD™ 810 Plate Assembler. The plates were incubated in a CO2 incubator for 72 hours; after that, 40 μL of Luciferase assay substrate (Promega Bright-Glo) was added to each well, and detected by a chemiluminescence detection system (Topcount Microplate Scintillation and Luminescence Counter) 5 minutes later; the EC50 (half-maximal effective concentration, concentration for 50% of maximal effect) values of test compounds were analyzed by GraphPad Prism software. In this paper, experiments were repeated twice and set the wells without compounds as negative control.
(§5) 2. Test Method for Measuring EC50 of the Compounds by Detecting Antibiotic G418 Resistance Gene NEO Gene.
(§6) The Huh-7 cells transfected with HCV replicons system were seeded into 96-well plates (8,000 cells in 125 μL/well) respectively; each test compound was diluted to desired concentration using 5-fold serial dilutions protocol, 10 doses in duplicate, and added to each well with POD™ 810 Plate Assembler; the cells were incubated in a CO2 incubator for 72 hours; and detected the expression level of the NEO gene expression with real-time quantitative PCR later; the EC50 (half-maximal effective concentration, concentration for 50% of maximal effect) values of test compounds were analyzed by GraphPad Prism software, respectively. In this paper, experiments were repeated twice and set the wells without compounds as negative control.
On the technique in general: In antiviral work, replicon cells carry a viral genome segment that copies itself.

The next test deals with HCV GT1a replicon. As to the kind of experiment: HCV replicon assay (Huh-7 cells stably transfected with HCV GT1a replicon; luciferase or NEO gene qPCR readout). The class given is cell-based. The note with it: Hepatitis C virus, HCV 1a genotype replicon, 72 hours. The procedure:
as §1, §2, §3, §4, §5, §6

On to `COC(=O)N[C@H](C(=O)N1CCC[C@H]1c1nc2ccc(-c3ccc(-c4ccc(-c5cnc([C@@H]6C7CCC(C7)N6C(=O)[C@@H](NC(=O)OC)C(C)C)[nH]5)cc4)c4c3C3CCC3C4)cc2[nH]1)C(C)C` (stereo partly drawn) [Example 2], for which the 50% effective concentration (EC50) (commonly the concentration at which the effect is half-maximal) in the test on HCV GT1b replicon was found to be 0.021 nM; in the test on HCV GT1a replicon it was 0.071 nM.
As for `COC(=O)NC(C(=O)N1CCCC1c1nc2ccc(-c3ccc(-c4ccc(-c5cnc(C6C7CCC(C7)N6C(=O)C(NC(=O)OC)C(C)C)[nH]5)cc4)c4c3C3CCC3C4)cc2[nH]1)C(C)C` (stereo not drawn) [Example 36], the EC50 with HCV GT1b replicon turned out to be 0.01 nM; in the test with HCV GT1a replicon it was 0.935 nM.
Take `COC(=O)NC(C(=O)N1CCCC1c1nc2ccc(-c3ccc(-c4ccc(-c5cnc(C6CC7CC7N6C(=O)C(NC(=O)OC)C(C)C)[nH]5)cc4)c4c3CC3CCC43)cc2[nH]1)C(C)C` (stereo not drawn) [Example 37]: the EC50 came to 0.016 nM in the test with HCV GT1b replicon and 0.063 nM with HCV GT1a replicon.
The corresponding values for `COC(=O)N[C@H](C(=O)N1CCC[C@H]1c1ncc(C#Cc2ccc(-c3ccc4nc([C@@H]5CCCN5C(=O)[C@@H](NC(=O)OC)C(C)C)[nH]c4c3)c3c2C2CCC2C3)[nH]1)C(C)C` (stereo partly drawn) [Example 6] are 0.106 nM and 0.243 nM.
Taken in the same sequence, the figures for `COC(=O)N[C@H](C(=O)N1CCC[C@H]1c1ncc(-c2ccc(-c3ccc(-c4ccc5nc([C@@H]6CCCN6C(=O)[C@@H](NC(=O)OC)C(C)C)[nH]c5c4)c4c3CC3CCC43)s2)[nH]1)C(C)C` (stereo partly drawn) [Example 7] were 0.053 nM and 0.093 nM.
As to `COC(=O)N[C@H](C(=O)N1CCC[C@H]1c1ncc(-c2ccc(-c3ccc(-c4cnc([C@@H]5CCCN5C(=O)[C@@H](NC(=O)OC)C(C)C)[nH]4)c4c3C3CCCC3C4C)cc2)[nH]1)C(C)C` (stereo partly drawn) [Example 33], the EC50 in the test on HCV GT1b replicon stood at 0.03 nM; with HCV GT1a replicon, 0.082 nM.
The corresponding values for `COC(=O)N[C@H](C(=O)N1CC(C)(C)C[C@H]1c1ncc(-c2ccc(-c3ccc(-c4ccc5nc([C@@H]6CC(C)(C)CN6C(=O)[C@@H](NC(=O)OC)C(C)C)[nH]c5c4)c4c3C3CCC3C4)cc2)[nH]1)C(C)C` (stereo partly drawn) [Example 15] are 0.105 nM and 0.381 nM.
For `COC(=O)N[C@H](C(=O)N1C2CC2C[C@H]1c1ncc(-c2ccc(-c3ccc(-c4ccc5nc([C@@H]6CC7CC7N6C(=O)[C@@H](NC(=O)OC)C(C)C)[nH]c5c4)c4c3C3CCC3C4)cc2)[nH]1)C(C)C` (stereo partly drawn) [Example 18], the EC50 stood at 0.03 nM in the test on HCV GT1b replicon and 0.083 nM in the test with HCV GT1a replicon.
The corresponding values for `COC(=O)N[C@H](C(=O)N1CCC[C@H]1C(=O)Nc1ccc(-c2ccc(-c3ccc4nc([C@@H]5CCCN5C(=O)[C@@H](NC(=O)OC)C(C)C)[nH]c4c3)c3c2CC2CCC32)cc1)C(C)C` (stereo partly drawn) [Example 27] are 0.672 nM and 1.64 nM.
The corresponding values for `COC(=O)N[C@H](C(=O)N1CCC[C@H]1c1ncc(-c2ccc(-c3ncc(-c4ccc5nc([C@@H]6CCCN6C(=O)[C@@H](NC(=O)OC)C(C)C)[nH]c5c4)c4c3C3CCC3C4)cc2)[nH]1)C(C)C` (stereo partly drawn) [Example 25] are 0.032 nM and 0.065 nM.
The corresponding values for `COC(=O)N[C@H](C(=O)N1CCC[C@H]1c1nc2ccc(-c3ccc(-c4ccc(-c5cnc([C@@H]6CC7CC7N6C(=O)[C@@H](NC(=O)OC)C(C)C)[nH]5)cc4)c4c3CC3CCC43)cc2[nH]1)C(C)C` (stereo partly drawn) [Example 3] are 0.018 nM and 0.088 nM.
For the compound `COC(=O)N[C@H](C(=O)N1CCC[C@H]1c1ncc(-c2ccc(-c3ccc(-c4ccc5nc([C@@H]6CC7CC7N6C(=O)[C@@H](NC(=O)OC)C(C)C)[nH]c5c4)c4c3C3CCC3C4)cc2)[nH]1)C(C)C` (stereo partly drawn) [Example 11], the EC50 was 0.033 nM with HCV GT1b replicon and 0.051 nM in the test on HCV GT1a replicon.
Taken in the same sequence, the figures for `COC(=O)N[C@H](C(=O)N1C[C@@H](C)C[C@H]1c1ncc(-c2ccc(-c3ccc(-c4ccc5nc([C@@H]6C[C@H](C)CN6C(=O)[C@@H](NC(=O)OC)C(C)C)[nH]c5c4)c4c3C3CCC3C4)cc2)[nH]1)C(C)C` (stereo partly drawn) [Example 14] were 0.001 nM and 0.003 nM.
Consider `COC(=O)N[C@H](C(=O)N1CC(F)(F)C[C@H]1c1ncc(-c2ccc(-c3ccc(-c4ccc5[nH]c([C@@H]6CC(F)(F)CN6C(=O)[C@@H](NC(=O)OC)C(C)C)nc5c4)c4c3C3CCC3C4)cc2)[nH]1)C(C)C` (stereo partly drawn) [Example 12], for which the EC50 came to 0.027 nM in the test with HCV GT1b replicon and 0.08 nM in the test with HCV GT1a replicon.
With `COC(=O)N[C@H](C(=O)N1CC2(CC2)C[C@H]1c1ncc(-c2ccc(-c3ccc(-c4ccc5nc([C@@H]6CC7(CC7)CN6C(=O)[C@@H](NC(=O)OC)C(C)C)[nH]c5c4)c4c3C3CCC3C4)cc2)[nH]1)C(C)C` (stereo partly drawn) [Example 17], the results for the EC50 in the test on HCV GT1b replicon and with HCV GT1a replicon were 0.078 nM and 0.062 nM, respectively.
Taken in the same sequence, the figures for `COC(=O)N[C@H](C(=O)N1[C@@H]2CC[C@@H](C2)[C@H]1c1ncc(-c2ccc(-c3ccc(-c4ccc5nc([C@@H]6[C@H]7CC[C@H](C7)N6C(=O)[C@@H](NC(=O)OC)C(C)C)[nH]c5c4)c4c3C3CCC3C4)cc2)[nH]1)C(C)C` (stereo partly drawn) [Example 19] were 0.044 nM and 0.217 nM.
The corresponding values for `CC(C)[C@H](NC(=O)OC(C)(C)C)C(=O)N1CCC[C@H]1c1ncc(-c2ccc(-c3ccc(-c4cnc([C@@H]5CCCN5C(=O)[C@@H](NC(=O)OC(C)(C)C)C(C)C)[nH]4)c4c3C3CCC3C4)cc2)[nH]1` (stereo partly drawn) [Example 10] are 0.927 nM and 4.33 nM.
Taken in the same sequence, the figures for `COC(=O)N[C@H](C(=O)N1CCC[C@H]1c1ncc(-c2ccc(-c3ccc(-c4ccc5nc([C@@H]6CCCN6C(=O)[C@@H](NC(=O)OC)C(C)C)[nH]c(=O)c5c4)c4c3C3CC(F)(F)C3C4)cc2)[nH]1)C(C)C` (stereo partly drawn) [Example 28] were 0.008 nM and 0.022 nM.
As for `COC(=O)N[C@H](C(=O)N1C[C@@H](F)C[C@H]1c1ncc(-c2ccc(-c3ccc(-c4ccc5nc([C@@H]6C[C@H](F)CN6C(=O)[C@@H](NC(=O)OC)C(C)C)[nH]c5c4)c4c3C3CCC3C4)cc2)[nH]1)C(C)C` (stereo partly drawn) [Example 9], the EC50 with HCV GT1b replicon is 0.014 nM; in the test on HCV GT1a replicon it was 0.035 nM.
The corresponding values for `COC(=O)N[C@H](C(=O)N1CCC[C@H]1c1ncc(-c2ccc(-c3ccc(-c4ccc5nc([C@@H]6CCCN6C(=O)[C@@H](NC(=O)OC)C(C)C)[nH]c5c4)c4c3CC3CCC43)c3cnoc23)[nH]1)C(C)C` (stereo partly drawn) [Example 24] are 0.118 nM and 0.207 nM.
The corresponding values for `COC(=O)N[C@H](C(=O)N1CCC[C@H]1c1ncc(-c2ccc(-c3ccc(-c4ccc5nc([C@@H]6CCCN6C(=O)[C@@H](NC(=O)OC)C(C)C)[nH]c5c4)c4c3C3CCC3C4)nc2)[nH]1)C(C)C` (stereo partly drawn) [Example 8] are 0.028 nM and 0.066 nM.
Taken in the same sequence, the figures for `COC(=O)NC(C(=O)N1CCCC1c1ncc(-c2ccc(-c3ccc(-c4cnc(C5CCCN5C(=O)C(NC(=O)OC)C(C)C)[nH]4)c4c3C3CCC3C4)cc2)[nH]1)C(C)C` (stereo not drawn) [Example 35] were 0.007 nM and 0.548 nM.
Turning to `CC(C)[C@H](NC(=O)Oc1ccccc1)C(=O)N1CC(C)(C)C[C@H]1c1ncc(-c2ccc(-c3ccc(-c4ccc5nc([C@@H]6CC(C)(C)CN6C(=O)[C@@H](NC(=O)Oc6ccccc6)C(C)C)[nH]c5c4)c4c3C3CCC3C4)cc2)[nH]1` (stereo partly drawn) [Example 16], the figures for the EC50 with HCV GT1b replicon and with HCV GT1a replicon were 0.879 nM and 2.55 nM, respectively.
The corresponding values for `COC(=O)N[C@H](C(=O)N1CC2(C[C@H]1c1ncc(-c3ccc(-c4ccc(-c5ccc6nc([C@@H]7CCCN7C(=O)[C@@H](NC(=O)OC)C(C)C)[nH]c6c5)c5c4C4CCC4C5)cc3)[nH]1)OCCO2)C(C)C` (stereo partly drawn) [Example 20] are 0.036 nM and 0.429 nM.
For the compound `COC(=O)N[C@H](C(=O)N1CCC[C@H]1c1ncc(-c2ccc(-c3ccc(-c4ccc5nc([C@@H]6CCCN6C(=O)[C@@H](NC(=O)OC)C(C)C)[nH]c5c4)c4c3C3CCC3C4)cc2)[nH]1)C(C)C` (stereo partly drawn) [Example 4], the EC50 in the test with HCV GT1b replicon was found to be 0.02 nM; in the test on HCV GT1a replicon it was 0.06 nM.
Taken in the same sequence, the figures for `COC(=O)N[C@H](C(=O)N1CCC[C@H]1c1nc(-c2ccc(-c3ccc(-c4ccc5nc([C@@H]6CCCN6C(=O)[C@@H](NC(=O)OC)C(C)C)[nH]c5c4)c4c3C3CCC3C4)c3c2CCC3)c[nH]1)C(C)C` (stereo partly drawn) [Example 22] were 0.082 nM and 0.233 nM.
For `COC(=O)N[C@H](C(=O)N1CC(C)=C[C@H]1c1ncc(-c2ccc(-c3ccc(-c4cnc([C@@H]5C=C(C)CN5C(=O)[C@@H](NC(=O)OC)C(C)C)[nH]4)c4c3C3CCC3C4)cc2)[nH]1)C(C)C` (stereo partly drawn) [Example 21], the EC50 in the test on HCV GT1b replicon came to 0.015 nM; in the test with HCV GT1a replicon, 0.068 nM.
